According to ChEMBL document CHEMBL1151394, “Cytotoxic agent from Senecio anonymus wood” (1982):
In brackets after ≈: the same amount, converted by molar mass.

Key:
KB = test: Cytotoxicity against human KB cells; format: functional; details: read-out: ED50 (the source's name)
P388 = test: In vivo cytotoxicity against mouse P388 cells; format: functional

SMILES	EC50 (KB)	T/C (P388)
CCOC(=O)CC1(O)C=CC(=O)C=C1	3.3 µg/mL (≈ 16.8 µM)	–
COC(=O)CC1(O)C=CC(=O)C=C1 [JACARANONE]	2.1 µg/mL (≈ 11.5 µM)	165%
